Literature values as cited in article PMC5589927, “Visualization of ligand-induced dopamine D2S and D2L receptor internalization by TIRF microscopy” (Scientific Reports, 2017).

Columns and labels:
D2S receptors = details: stably transfected CHO cells, ref 46 (Itokawa et al.)
D2L receptors = details: stably transfected CHO cells, ref 46 (Itokawa et al.)

- surface expressed D2S receptors unavailable for [3H]sulpiride (internalization) (D2S receptors; after incubation with agonist): about 44%
- half-life of decrease D2S (D2S receptors): 19 min
- internalization of D2L (D2L receptors; after incubation with agonist): 22%
- half-life of decrease D2L (D2L receptors): 33 min
Compound: NCCc1ccc(O)c(O)c1 [dopamine]
